Ten molecules from patent publication US9546172B2, “Pyrazolo[3,4-d]pyrimidine and pyrazolo[2,3-d]pyrimidine compounds as kinase inhibitors” (Pharmacyclics LLC, priority 2011, dated 2017) can be followed below.

Common to all, as to format: biochemical
In one experiment the target is Lck (Homo sapiens, UniProt P06239). As to the kind of experiment: Lck kinase inhibition. The procedure:
(§1) Btk kinase activity was determined using a time-resolved fluorescence resonance energy transfer (TR-FRET) methodology. Measurements were performed in a reaction volume of 50 μL using 96-well assay plates. […] The reaction was quenched by the addition of 1.2 equivalents of EDTA (relative to divalent cation) in 25 μL of 1× Lance buffer (Perkin-Elmer). Streptavidin-APC (Perkin-Elmer) and Eu-labeled p-Tyr100 antibody (Perkin-Elmer) in 1× Lance buffer were added in a 25 μL volume to give final concentrations of 100 nM and 2.5 nM, respectively, and the mixture was allowed to incubate for one hour. The TR-FRET signal was measured on a multimode plate reader with an excitation wavelength (λEx) of 330 nm and detection wavelengths (λEm) of 615 and 665 nm. Activity was determined by the ratio of the fluorescence at 665 nm to that at 615 nm. For each compound, enzyme activity was measured at various concentrations of compound. Negative control reactions were performed in the absence of inhibitor in replicates of six, and two no-enzyme controls were used to determine baseline fluorescence levels Inhibition constants, Ki(app), were obtained using the program BatchKi (Kuzmic et al. (2000), Anal. Biochem. 286:45-50). IC50s were obtained according to the equation: IC50={Ki(app)/(1+[ATP]/Km^ATP)}+[E]total/2; For all kinases, [ATP]=Km^ATP, [Btk]total=0.5 nM and [Lck]total=6 nM.

A further experiment deals with C-src (Homo sapiens, UniProt P12931). As to the kind of experiment: C-src kinase inhibition. The method, then:
as §1

The target of the next experiment is Lyn (Homo sapiens, UniProt P07948). As to the kind of experiment: Lyn kinase inhibition.
Sequence of Lyn (P07948 whole entry): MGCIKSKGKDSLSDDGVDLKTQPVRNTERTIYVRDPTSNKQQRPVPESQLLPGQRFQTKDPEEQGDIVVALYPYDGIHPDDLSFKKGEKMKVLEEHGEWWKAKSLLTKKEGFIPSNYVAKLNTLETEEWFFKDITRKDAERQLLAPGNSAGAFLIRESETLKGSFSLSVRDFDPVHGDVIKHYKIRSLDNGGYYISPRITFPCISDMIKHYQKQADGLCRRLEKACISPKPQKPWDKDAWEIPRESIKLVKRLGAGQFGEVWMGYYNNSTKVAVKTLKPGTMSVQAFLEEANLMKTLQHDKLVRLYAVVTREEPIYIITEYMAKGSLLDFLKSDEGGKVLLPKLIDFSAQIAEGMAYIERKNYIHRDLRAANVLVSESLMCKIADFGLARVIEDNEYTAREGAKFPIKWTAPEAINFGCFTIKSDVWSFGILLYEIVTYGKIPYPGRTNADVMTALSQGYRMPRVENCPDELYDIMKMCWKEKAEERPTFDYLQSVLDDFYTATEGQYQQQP
The next experiment deals with EGFR (Homo sapiens, UniProt P00533). Kind of experiment: EGFR kinase inhibition.
Sequence of EGFR (P00533 25-1210): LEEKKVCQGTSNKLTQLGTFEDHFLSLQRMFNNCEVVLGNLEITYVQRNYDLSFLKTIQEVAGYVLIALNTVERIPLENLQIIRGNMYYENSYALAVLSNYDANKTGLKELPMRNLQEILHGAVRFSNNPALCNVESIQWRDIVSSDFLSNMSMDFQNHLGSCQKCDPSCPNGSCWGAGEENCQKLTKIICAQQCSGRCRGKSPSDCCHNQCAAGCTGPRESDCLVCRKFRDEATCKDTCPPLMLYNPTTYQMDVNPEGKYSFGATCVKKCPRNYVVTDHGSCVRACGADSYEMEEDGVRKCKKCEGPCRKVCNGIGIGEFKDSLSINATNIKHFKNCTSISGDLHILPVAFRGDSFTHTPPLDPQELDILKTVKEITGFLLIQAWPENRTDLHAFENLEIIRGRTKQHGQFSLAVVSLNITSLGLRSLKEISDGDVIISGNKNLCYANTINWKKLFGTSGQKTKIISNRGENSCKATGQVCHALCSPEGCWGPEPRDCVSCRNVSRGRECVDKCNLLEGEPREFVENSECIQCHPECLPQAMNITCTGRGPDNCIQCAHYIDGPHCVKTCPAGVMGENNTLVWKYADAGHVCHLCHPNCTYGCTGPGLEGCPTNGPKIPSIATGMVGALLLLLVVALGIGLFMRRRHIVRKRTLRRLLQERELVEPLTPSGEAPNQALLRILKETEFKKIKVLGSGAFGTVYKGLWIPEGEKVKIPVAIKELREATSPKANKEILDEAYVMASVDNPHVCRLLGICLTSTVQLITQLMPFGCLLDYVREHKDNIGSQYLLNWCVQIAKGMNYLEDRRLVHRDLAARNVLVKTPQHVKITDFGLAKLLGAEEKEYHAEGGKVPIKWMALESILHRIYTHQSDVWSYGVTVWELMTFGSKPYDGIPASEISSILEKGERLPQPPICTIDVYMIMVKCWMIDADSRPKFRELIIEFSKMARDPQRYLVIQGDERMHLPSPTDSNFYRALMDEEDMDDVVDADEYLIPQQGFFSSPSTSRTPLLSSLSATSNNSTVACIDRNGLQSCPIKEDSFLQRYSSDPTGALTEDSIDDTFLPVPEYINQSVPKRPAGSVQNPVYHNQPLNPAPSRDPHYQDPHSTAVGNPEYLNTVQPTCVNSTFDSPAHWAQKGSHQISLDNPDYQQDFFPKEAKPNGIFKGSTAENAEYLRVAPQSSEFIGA
The target of another experiment is T1, Btk (Homo sapiens, UniProt Q06187).
T1 construct: purified from insect cells as a full-length construct containing a N-terminal 6×-His tag; 6xHis (N); host or cells: insect cells (baculovirus Sf21 in Method B)
T1 sequence (Q06187 whole entry): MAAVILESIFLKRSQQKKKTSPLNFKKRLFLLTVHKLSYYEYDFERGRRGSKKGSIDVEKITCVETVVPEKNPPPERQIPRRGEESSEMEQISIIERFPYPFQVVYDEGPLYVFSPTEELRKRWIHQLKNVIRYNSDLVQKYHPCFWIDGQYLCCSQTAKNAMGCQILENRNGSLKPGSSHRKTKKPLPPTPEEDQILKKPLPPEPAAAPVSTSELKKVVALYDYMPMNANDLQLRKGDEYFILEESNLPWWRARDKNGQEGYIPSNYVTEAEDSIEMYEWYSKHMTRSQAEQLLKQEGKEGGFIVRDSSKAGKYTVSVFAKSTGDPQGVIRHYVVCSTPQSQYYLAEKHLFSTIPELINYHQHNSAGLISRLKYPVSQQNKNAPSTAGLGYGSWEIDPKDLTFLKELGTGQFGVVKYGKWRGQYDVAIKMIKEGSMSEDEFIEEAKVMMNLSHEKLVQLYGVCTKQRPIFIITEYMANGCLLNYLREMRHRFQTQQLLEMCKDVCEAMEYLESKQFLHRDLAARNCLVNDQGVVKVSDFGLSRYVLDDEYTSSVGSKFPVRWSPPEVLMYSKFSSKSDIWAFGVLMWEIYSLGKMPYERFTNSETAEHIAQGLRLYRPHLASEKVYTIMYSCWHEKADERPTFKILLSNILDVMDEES
Kind of experiment: Btk in vitro inhibitory activity (one of Methods A, B, C). The note with it: determined in one of three in vitro assays (Examples 125-127). The procedure: The Btk IC50s of compounds disclosed herein was determined in one of the three in vitro assays described in Examples 125-127.
as §1
Kinase activity is measured in vitro using electrophoretic mobility shift assay. The kinase reactions are assembled in a total volume of 25 μL in 384 well plates. […] The reaction is incubated for one hour and is quenched by the addition of 45 μL of termination buffer (100 mM HEPES, pH7.5, 0.01% Triton X-100, 30 mM EDTA). The terminated reactions are analyzed using 12 channel LabChip® 3000 microfluidic detection instrument (Caliper Life Sciences). The enzymatic phosphorylation of the peptide results in a change in net charge, enabling electrophoretic separation of product from substrate peptide. As substrate and product peptides are separated, two peaks of fluorescence are observed. Change in the relative fluorescence intensity of the substrate and product peaks is the parameter measured, reflecting enzyme activity. In the presence of an inhibitor, the ratio between product and substrate is altered: the signal of the product decreases, while the signal of the substrate increases.
Activity in each sample is determined as the product to sum ratio (PSR): P/(S+P), where P is the peak height of the product peptide and S is the peak height of the substrate peptide. For each compound, enzyme activity is measured at various concentrations (12 concentrations of compound spaced by 3× dilution intervals). Negative control samples (0%-inhibition in the absence of inhibitor) and positive control samples (100%-inhibition, in the presence of 20 mM EDTA) are assembled in replicates of four and are used to calculate %-inhibition values for each inhibitor at each concentration. Percent inhibition (Pinh) is determined using following equation: Pinh=(PSR0%−PSRinh)/(PSR0%−PSR100%)*100, where PSRinh is the product sum ratio in the presence of inhibitor, PSR0% is the average product sum ration in the absence of inhibitor and PSR100% is the average product sum ratio in 100%-inhibition control samples;
The IC50 values of inhibitors are determined by 4 parameter sigmoidal dose-response model fitting of the inhibition curves (Pinh versus inhibitor concentration) using XLfit 4 software.
Human Btk kinase (Genbank accession # NP_000052) was purified from insect cells as a full-length construct containing a N-terminal 6×-His tag. Btk kinase activity was determined using a radiometric filter binding assay. Measurements are performed in a low reaction volume 384-well assay plates. […]

The next experiment has as its target CSK (Homo sapiens, UniProt P41240). Kind of experiment: CSK kinase inhibition.
Another experiment addresses T2, Tec (Homo sapiens, UniProt P42680).
T2 sequence (P42680 1-631): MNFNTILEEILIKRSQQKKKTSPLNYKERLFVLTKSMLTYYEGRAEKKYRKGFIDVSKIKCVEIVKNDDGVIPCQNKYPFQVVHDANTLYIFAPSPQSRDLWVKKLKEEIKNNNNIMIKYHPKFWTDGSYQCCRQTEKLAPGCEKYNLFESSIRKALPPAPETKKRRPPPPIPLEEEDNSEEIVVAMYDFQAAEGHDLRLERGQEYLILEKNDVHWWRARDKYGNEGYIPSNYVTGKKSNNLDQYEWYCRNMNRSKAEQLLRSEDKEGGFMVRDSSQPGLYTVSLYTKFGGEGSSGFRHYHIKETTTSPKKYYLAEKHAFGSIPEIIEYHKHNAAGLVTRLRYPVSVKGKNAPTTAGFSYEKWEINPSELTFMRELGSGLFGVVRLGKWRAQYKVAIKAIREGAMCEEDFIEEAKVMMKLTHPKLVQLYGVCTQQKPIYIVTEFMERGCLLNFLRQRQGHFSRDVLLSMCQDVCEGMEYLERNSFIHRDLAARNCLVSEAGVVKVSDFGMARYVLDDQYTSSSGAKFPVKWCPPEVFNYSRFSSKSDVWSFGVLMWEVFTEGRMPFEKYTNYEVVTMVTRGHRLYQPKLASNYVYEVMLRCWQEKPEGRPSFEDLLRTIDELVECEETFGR
As to the kind of experiment: Tec kinase inhibition. The method, then:
as §1

Another experiment deals with T3, BMX (Homo sapiens, UniProt P51813).
T3 sequence (P51813 1-675): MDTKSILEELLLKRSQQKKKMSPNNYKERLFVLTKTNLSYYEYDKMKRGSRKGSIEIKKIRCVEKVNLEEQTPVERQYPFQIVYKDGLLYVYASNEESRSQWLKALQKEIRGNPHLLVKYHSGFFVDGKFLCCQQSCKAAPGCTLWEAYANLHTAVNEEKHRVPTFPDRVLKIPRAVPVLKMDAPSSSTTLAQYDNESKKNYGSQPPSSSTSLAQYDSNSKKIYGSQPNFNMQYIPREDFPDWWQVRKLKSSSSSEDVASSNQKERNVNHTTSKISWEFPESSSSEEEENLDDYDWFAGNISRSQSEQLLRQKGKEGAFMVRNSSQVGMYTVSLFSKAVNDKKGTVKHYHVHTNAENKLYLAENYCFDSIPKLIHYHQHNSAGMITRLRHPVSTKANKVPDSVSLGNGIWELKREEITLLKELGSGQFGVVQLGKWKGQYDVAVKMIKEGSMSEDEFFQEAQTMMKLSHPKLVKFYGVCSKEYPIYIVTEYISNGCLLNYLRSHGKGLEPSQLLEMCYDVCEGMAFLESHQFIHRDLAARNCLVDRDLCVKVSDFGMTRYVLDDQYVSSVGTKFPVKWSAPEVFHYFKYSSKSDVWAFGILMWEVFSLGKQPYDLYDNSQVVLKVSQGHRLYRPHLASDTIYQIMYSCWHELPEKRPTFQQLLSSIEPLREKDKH
Kind of experiment: BMX kinase inhibition.

The next experiment has as its target BLK (Homo sapiens, UniProt P51451). As to the kind of experiment: BLK kinase inhibition. The procedure: as §1

Sequence of Lck (P06239 whole entry): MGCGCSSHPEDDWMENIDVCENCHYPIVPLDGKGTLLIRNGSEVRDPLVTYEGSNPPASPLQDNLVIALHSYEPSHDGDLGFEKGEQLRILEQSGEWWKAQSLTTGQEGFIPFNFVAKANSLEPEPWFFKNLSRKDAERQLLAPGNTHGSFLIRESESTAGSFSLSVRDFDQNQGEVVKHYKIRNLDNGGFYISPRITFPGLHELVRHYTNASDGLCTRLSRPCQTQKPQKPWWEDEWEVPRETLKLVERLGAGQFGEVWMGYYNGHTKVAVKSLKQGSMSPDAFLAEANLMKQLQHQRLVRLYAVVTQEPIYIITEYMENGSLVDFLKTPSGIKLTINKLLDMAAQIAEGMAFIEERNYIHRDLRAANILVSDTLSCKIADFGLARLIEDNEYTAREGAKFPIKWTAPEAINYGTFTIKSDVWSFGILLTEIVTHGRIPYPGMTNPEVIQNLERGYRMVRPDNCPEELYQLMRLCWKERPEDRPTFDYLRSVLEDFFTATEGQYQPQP
Sequence of C-src (P12931 whole entry): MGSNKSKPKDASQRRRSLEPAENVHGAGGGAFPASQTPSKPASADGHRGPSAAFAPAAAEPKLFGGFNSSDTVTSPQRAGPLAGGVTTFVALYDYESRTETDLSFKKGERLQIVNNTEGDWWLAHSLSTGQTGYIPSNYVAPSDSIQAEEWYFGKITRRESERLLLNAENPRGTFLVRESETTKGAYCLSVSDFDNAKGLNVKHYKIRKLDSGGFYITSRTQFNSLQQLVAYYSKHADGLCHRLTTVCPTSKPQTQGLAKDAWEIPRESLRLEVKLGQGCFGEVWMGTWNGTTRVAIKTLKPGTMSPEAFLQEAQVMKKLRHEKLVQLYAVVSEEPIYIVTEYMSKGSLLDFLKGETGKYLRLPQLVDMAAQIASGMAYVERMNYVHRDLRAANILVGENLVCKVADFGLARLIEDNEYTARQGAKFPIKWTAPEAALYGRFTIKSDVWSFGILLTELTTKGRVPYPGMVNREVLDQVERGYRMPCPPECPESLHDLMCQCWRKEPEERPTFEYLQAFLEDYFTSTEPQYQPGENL
Sequence of CSK (P41240 whole entry): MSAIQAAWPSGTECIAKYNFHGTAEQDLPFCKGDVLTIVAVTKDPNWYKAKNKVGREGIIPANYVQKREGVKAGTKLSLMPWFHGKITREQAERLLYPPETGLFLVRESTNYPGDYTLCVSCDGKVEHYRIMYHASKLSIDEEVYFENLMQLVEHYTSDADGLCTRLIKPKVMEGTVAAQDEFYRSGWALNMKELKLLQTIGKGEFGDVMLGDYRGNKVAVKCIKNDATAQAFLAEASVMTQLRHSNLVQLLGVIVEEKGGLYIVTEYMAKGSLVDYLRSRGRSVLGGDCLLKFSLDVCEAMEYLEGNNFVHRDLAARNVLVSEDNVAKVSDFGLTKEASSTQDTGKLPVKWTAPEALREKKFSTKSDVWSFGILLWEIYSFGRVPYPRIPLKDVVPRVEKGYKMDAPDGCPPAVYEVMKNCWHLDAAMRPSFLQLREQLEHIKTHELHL
Sequence of BLK (P51451 whole entry): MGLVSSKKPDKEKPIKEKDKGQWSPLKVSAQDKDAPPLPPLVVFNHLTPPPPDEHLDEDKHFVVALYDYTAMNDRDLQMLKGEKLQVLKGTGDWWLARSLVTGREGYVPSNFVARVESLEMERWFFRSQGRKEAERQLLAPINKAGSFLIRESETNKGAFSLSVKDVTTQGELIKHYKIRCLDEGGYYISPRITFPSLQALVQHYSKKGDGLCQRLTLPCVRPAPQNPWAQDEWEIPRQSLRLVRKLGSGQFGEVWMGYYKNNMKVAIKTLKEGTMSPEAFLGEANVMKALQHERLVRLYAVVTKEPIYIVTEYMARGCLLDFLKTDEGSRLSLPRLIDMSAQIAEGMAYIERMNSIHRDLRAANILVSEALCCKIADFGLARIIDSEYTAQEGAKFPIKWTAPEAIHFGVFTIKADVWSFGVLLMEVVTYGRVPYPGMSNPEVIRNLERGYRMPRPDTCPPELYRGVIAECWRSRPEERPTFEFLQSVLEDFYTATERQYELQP

Regarding `COc1cc(-c2nn(-c3ccc(N(C)C(=O)/C=C/CN(C)C)cc3)c3ncnc(N)c23)ccc1C` [Example 15, (E)-N-(4-(4-amino-3-(3-methoxy-4-methylphenyl)-1H-pyrazolo[3,4-d]pyrimidin-1-yl)phenyl)-4-(dimethylamino)-N-methylbut-2-enamide], the IC50 is less than 100 nM at Lck; less than 100 nM against C-src; less than 100 nM against Lyn; 100 to 1000 nM against EGFR; less than 100 nM on Btk.

For `COc1cc(-c2nn(-c3ccc(NC(=O)/C=C/CN(C)C)cc3)c3ncnc(N)c23)ccc1C` [Example 16, (E)-N-(4-(4-amino-3-(3-methoxy-4-methylphenyl)-1H-pyrazolo[3,4-d]pyrimidin-1-yl)phenyl)-4-(dimethylamino)but-2-enamide], the half-maximal inhibitory concentration (IC50) against Lck, at C-src, against Lyn, on CSK, on EGFR and at Btk was less than 100 nM throughout. Besides, the IC50 at Tec, at BMX and on BLK was less than 100 nM throughout.

For `C=CC(=O)N(C)c1ccc(-n2nc(-c3ccc(C)c(OC)c3)c3c(N)ncnc32)cc1` [Example 18, N-(4-(4-amino-3-(3-methoxy-4-methylphenyl)-1H-pyrazolo[3,4-d]pyrimidin-1-yl)phenyl)-N-methylacrylamide], the IC50 on Lck is less than 100 nM; against C-src it was less than 100 nM; on Lyn, 100 to 1000 nM; on EGFR it was less than 100 nM; on Btk, less than 100 nM.

For `C=CC(=O)Nc1ccc(-n2nc(-c3ccc(Cl)cc3)c3c(N)ncnc32)cc1` [Example 19, N-(4-(4-amino-3-(4-chlorophenyl)-1H-pyrazolo[3,4-d]pyrimidin-1-yl)phenyl)acrylamide], the IC50 at Lck, against C-src, against Lyn, against EGFR and against Btk was less than 100 nM throughout.

Turning to `C=CC(=O)Nc1ccc(-n2nc(-c3ccc(Cl)c(Cl)c3)c3c(N)ncnc32)cc1` [Example 20, N-(4-(4-amino-3-(3,4-dichlorophenyl)-1H-pyrazolo[3,4-d]pyrimidin-1-yl)phenyl)acrylamide], the IC50 on Lck was 100 to 1000 nM; against C-src it was less than 100 nM; against Lyn it was 100 to 1000 nM; at Btk it was less than 100 nM.

With `C=CC(=O)N(C)c1cccc(-n2nc(-c3ccc(Cl)cc3)c3c(N)ncnc32)c1` [Example 22, N-(3-(4-amino-3-(4-chlorophenyl)-1H-pyrazolo[3,4-d]pyrimidin-1-yl)phenyl)-N-methylacrylamide], the IC50 on Lck was greater than 1000 nM; on C-src, 100 to 1000 nM; against Lyn it was greater than 1000 nM; against EGFR it was less than 100 nM; against Btk, less than 100 nM.

Take `CN(C/C=C/C(=O)Nc1cccc(-n2nc(-c3ccc(Cl)cc3)c3c(N)ncnc32)c1)C1CC1` [Example 26, (E)-N-(3-(4-amino-3-(4-chlorophenyl)-1H-pyrazolo[3,4-d]pyrimidin-1-yl)phenyl)-4-(cyclopropyl(methyl)amino)but-2-enamide]: the IC50 is 100 to 1000 nM against Lck, 100 to 1000 nM against C-src, 100 to 1000 nM on Lyn and less than 100 nM on Btk.

`CN(C)C/C=C/C(=O)N(C)c1ccc(-n2nc(-c3ccc(Cl)cc3)c3c(N)ncnc32)nc1` [Example 28, (E)-N-(6-(4-amino-3-(4-chlorophenyl)-1H-pyrazolo[3,4-d]pyrimidin-1-yl)pyridin-3-yl)-4-(dimethylamino)-N-methylbut-2-enamide]: the IC50 against Lck was 100 to 1000 nM; against C-src, 100 to 1000 nM; on Lyn, greater than 1000 nM; at EGFR it was greater than 1000 nM; against Btk, less than 100 nM.

As to `COc1cc(-c2nn(-c3ccc(N(C)C(=O)/C=C/CN(C)C)cn3)c3ncnc(N)c23)ccc1C` [Example 29, (E)-N-(6-(4-amino-3-(3-methoxy-4-methylphenyl)-1H-pyrazolo[3,4-d]pyrimidin-1-yl)pyridin-3-yl)-4-(dimethylamino)-N-methylbut-2-enamide], the IC50 against Lck was 100 to 1000 nM; against C-src, less than 100 nM; at Lyn, 100 to 1000 nM; at EGFR, greater than 1000 nM; against Btk, less than 100 nM.

`C=CC(=O)N1CC[C@@H](n2nc(-c3ccc(C)cc3)c3c(N)ncnc32)C1` [Example 85d] came in with an IC50 against Btk of less than 100 nM.

What is called IC50 is the midpoint of a concentration-inhibition curve. Read a low IC50 as greater potency in that assay.
